Consider 32 compounds from BindingDB's records for doi:10.1002/cbic.201000487 (Eberhard Karls University of Tuebingen, 2010).

By IC50 is commonly meant the concentration needed to halve the response being measured. A lower IC50 goes with inhibition by little substance.

For assay [1], the target named is Mitogen-activated protein kinase 10 (Homo sapiens, UniProt P53779). Description: Kinase Assay. The following applies: 37 °C. On the procedure:
(§1) The p38alpha reaction was carried out by using kinase (12ng per well), ATP (100uM) and incubated for 60 min at 37 C. For the JNK3 assay, kinase (10ng per well), ATP (1uM) and 45 min of incubation time at 37 C were used.

Assay [2] deals with Mitogen-activated protein kinase 14 (Homo sapiens, UniProt Q16539). Description: Kinase Assay. The conditions noted are these: 37 °C. The method, then:
as §1

Mitogen-activated protein kinase 10, sequence (P53779 whole entry): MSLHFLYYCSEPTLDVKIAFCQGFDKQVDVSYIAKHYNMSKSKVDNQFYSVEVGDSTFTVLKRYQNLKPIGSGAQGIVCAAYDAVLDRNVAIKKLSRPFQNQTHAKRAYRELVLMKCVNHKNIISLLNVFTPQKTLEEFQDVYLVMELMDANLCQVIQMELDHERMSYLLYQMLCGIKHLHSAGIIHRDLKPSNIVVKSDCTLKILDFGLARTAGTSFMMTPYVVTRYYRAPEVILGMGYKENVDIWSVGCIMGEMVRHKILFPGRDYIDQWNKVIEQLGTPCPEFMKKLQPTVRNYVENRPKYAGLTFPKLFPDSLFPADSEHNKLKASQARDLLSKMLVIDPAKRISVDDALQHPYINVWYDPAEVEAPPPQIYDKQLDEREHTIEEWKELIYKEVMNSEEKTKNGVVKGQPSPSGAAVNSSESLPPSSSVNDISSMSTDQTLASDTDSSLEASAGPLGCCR
Mitogen-activated protein kinase 14, sequence (Q16539 whole entry): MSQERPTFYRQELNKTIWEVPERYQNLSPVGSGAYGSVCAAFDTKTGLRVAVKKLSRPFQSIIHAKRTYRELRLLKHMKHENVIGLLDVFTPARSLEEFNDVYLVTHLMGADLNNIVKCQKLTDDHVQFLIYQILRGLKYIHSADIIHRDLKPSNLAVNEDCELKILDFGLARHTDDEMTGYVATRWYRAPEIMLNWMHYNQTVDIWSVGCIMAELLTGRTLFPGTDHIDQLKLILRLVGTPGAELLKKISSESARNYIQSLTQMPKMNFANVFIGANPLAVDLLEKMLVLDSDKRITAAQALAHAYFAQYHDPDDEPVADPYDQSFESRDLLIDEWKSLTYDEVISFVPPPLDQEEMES

On to `O=c1c(O)c(-c2ccc(O)c(O)c2)oc2cc(O)cc(O)c12` [2-(3,4-dihydroxyphenyl)-3,5,7-trihydroxy-chromone;hydrate], for which the IC50 was found to be 2.31 µM in assay [1] and 3.45 µM in assay [2].

In the case of `O=c1cc(-c2ccc(O)c(O)c2)oc2cc(O)cc(O)c12` [2-(3,4-dihydroxyphenyl)-5,7-dihydroxy-4H-chromen-4-one], the IC50 in assay [1] came to 2.3 µM; in assay [2] it was 18 µM.

For the compound `C[C@@H]1O[C@@H](Oc2c(-c3ccc(O)c(O)c3)oc3cc(O)cc(=O)c-3c2O)[C@H](O)[C@H](O)[C@H]1O`, the values for the IC50 in assay [1] and in assay [2] were 20.2 µM and 28.1 µM, respectively.

Compound `COc1cc(O)c2c(=O)cc(-c3ccc(OC)c(OC)c3)oc2c1` [Luteolin-7,3',4'-trimethylether] returned an IC50 in assay [2] of 33.2 µM.

Regarding `COc1c(O)cc2oc(-c3ccc(O)c(O)c3)c(O)c(=O)c2c1O` [Patuletin], the results for the IC50 in assay [1] and in assay [2] were 60.9 µM and 16.3 µM, respectively.

As to `COc1c(O)cc2oc(-c3ccc(O)c(O)c3)cc(=O)c2c1O`, the figures for the concentration for half-maximal inhibition (IC50) in assay [1] and in assay [2] were 15.9 µM and 22.2 µM, respectively.

`COc1ccc([C@@H]2CC(=O)c3c(O)cc(O)cc3O2)cc1O` [(2S)-5,7-dihydroxy-2-(3-hydroxy-4-methoxyphenyl)-3,4-dihydro-2H-1-benzopyran-4-one] yielded an IC50 in assay [2] of 54.6 µM.

Consider `O=c1c(O)c(-c2ccc(O)cc2)oc2cc(O)cc(O)c12`, for which the IC50 in assay [1] turned out to be 19.1 µM; in assay [2], 18.4 µM.

On to `COc1cc(O)c2c(=O)c(OC)c(-c3ccc(O)c(O)c3)oc2c1` [3',4',5-trihydroxy-3,7-dimethoxyflavone], for which the IC50 stood at 7.7 µM in assay [1] and 12.3 µM in assay [2].

On to `COc1cc(O)c2c(=O)cc(-c3ccc(O)c(OC)c3)oc2c1` [Velutin], for which the values for the IC50 in assay [1] and in assay [2] were 7.8 µM and 52.5 µM, respectively.

Consider `COc1cc(O)c2c(=O)c(O)c(-c3ccc(OC)c(O)c3)oc2c1` [Kaempferol-7,4'-dimethylether], for which the IC50 in assay [1] was found to be 55.4 µM; in assay [2], 3.98 µM.

Regarding `O=c1c(O)c(-c2ccc(O)cc2O)oc2cc(O)cc(O)c12` [2-(2,4-dihydroxyphenyl)-3,5,7-trihydroxychromen-4-one], the IC50 in assay [1] came out at 26.8 µM; in assay [2] it was 11.4 µM.

For the compound `Oc1cc(O)c2c(c1)O[C@H](c1cc(O)c(O)c(O)c1)[C@@H](O)C2` [(+)-gallocatechin], the figures for the IC50 in assay [1] and in assay [2] were 5.3 µM and 3.53 µM, respectively.

Regarding `COc1ccc(-c2cc(=O)c3c(O)c(OC)c(O)c(OC)c3o2)cc1` [Nevadensin], the results for the IC50 in assay [1] and in assay [2] were 16.3 µM and 23.9 µM, respectively.

Take `O=c1cc(O)cc2oc(-c3ccc(O)c(O)c3)c(O[C@@H]3O[C@H](CO)[C@@H](O)[C@H](O)[C@H]3O)c(O)c1-2` [Quercetin 3-O-beta-D-glucoside]: the results for the IC50 in assay [1] and in assay [2] were 21.7 µM and 51.3 µM, respectively.

`COc1ccc(-c2cc(=O)c3c(O)cc(OC)cc3o2)cc1` [5-hydroxy-7-methoxy-2-(4-methoxyphenyl)-4H-chromen-4-one] yielded an IC50 in assay [2] of 27.8 µM.

In turn, `C[C@@H]1O[C@@H](OC[C@H]2O[C@@H](Oc3c(-c4ccc(O)c(O)c4)oc4cc(O)cc(O)c4c3=O)[C@H](O)[C@@H](O)[C@@H]2O)[C@H](O)[C@H](O)[C@H]1O` [3-Rhamnoglucosylquercetin] showed an IC50 in assay [2] of 65.9 µM.

As for `COc1cc(-c2cc(=O)c3c(O)c(OC)c(O)cc3o2)ccc1O` [Jaceosidin], the figures for the IC50 in assay [1] and in assay [2] were 19.1 µM and 18.9 µM, respectively.

On to `Oc1cc(O)c2c(c1)O[C@H](c1ccc(O)c(O)c1)[C@H](O)C2`, for which the half-inhibitory concentration (IC50) was determined as 89.5 µM in assay [1] and 67.6 µM in assay [2].

Consider `COc1ccc(-c2cc(=O)c3c(O)cc(O)cc3o2)cc1` [5,7-dihydroxy-2-(4-methoxyphenyl)-4H-chromen-4-one], for which the IC50 in assay [1] amounted to 5.78 µM; in assay [2] it was 50 µM.

As for `COc1c(O)cc2oc(-c3ccc(O)cc3)c(O)c(=O)c2c1O` [6-methoxy kaempferol], the IC50 stood at 22.4 µM in assay [1] and 17.2 µM in assay [2].

On to `O=c1c(O)c(-c2ccc(O)c(O)c2)oc2cc(O)ccc12` [2-(3,4-dihydroxyphenyl)-3,7-dihydroxy-chromen-4-one], for which the IC50 in assay [1] is 2.6 µM; in assay [2], 2.7 µM.

With `COc1ccc(-c2oc3cc(O)cc(O)c3c(=O)c2O)cc1` [Kaempferide], the IC50 in assay [1] stood at 52.5 µM; in assay [2] it was 32.9 µM.

In the case of `COc1cc(-c2oc3cc(O)cc(O)c3c(=O)c2O)ccc1O`, the IC50 in assay [1] came to 6.3 µM; in assay [2] it was 20.1 µM.

As for `O=c1cc(-c2ccc(O)c(O)c2)oc2cc(O[C@@H]3O[C@H](CO)[C@@H](O)[C@H](O)[C@H]3O)cc(O)c12`, the IC50 in assay [1] turned out to be 2.45 µM; in assay [2] it was 87.1 µM.

`O=c1c(O)c(-c2cc(O)c(O)c(O)c2)oc2cc(O)cc(O)c12`: the half-inhibitory concentration (IC50) in assay [1] is 2.24 µM; in assay [2], 1.64 µM.

For `COc1ccc(-c2cc(=O)c3c(O)c(OC)c(O)cc3o2)cc1` [4,5-Dihydroxy-6-methoxy-2-(4-methoxy-phenyl)-chromen-7-one], in assay [2], 32.4 µM corresponded to half-maximal inhibition (IC50).

As to `O=c1cc(-c2ccc(O)cc2)oc2cc(O)cc(O)c12` [Naringenin, 18], the results for the IC50 in assay [1] and in assay [2] were 2.2 µM and 14.3 µM, respectively.

As for `O=c1cc(-c2ccccc2)oc2cc(O)cc(O)c12` [5,7-dihydroxy-2-phenyl-4H-chromen-4-one], the IC50 in assay [1] was 11.8 µM; in assay [2] it was 39.9 µM.

For the compound `O=c1c(-c2ccc(O)cc2)coc2cc(O)cc(O)c12` [Prunetol], the midpoint of inhibition in assay [2], the IC50, lay at 61.4 µM.

`O=c1cc(-c2ccc(O)c(O)c2)oc2c([C@@H]3O[C@H](CO)[C@@H](O)[C@H](O)[C@H]3O)c(O)cc(O)c12` [Luteolin 8-C-glucoside]: the IC50 was 38.2 µM in assay [1] and 55.7 µM in assay [2].

Turning to `COc1c(O)cc2oc(-c3ccc(O)cc3)cc(=O)c2c1O` [5,7-dihydroxy-2-(4-hydroxyphenyl)-6-methoxy-4H-chromen-4-one], the IC50 in assay [1] came out at 34.8 µM; in assay [2], 18.6 µM.
